# From US11878012B2, “Compositions and methods for treating traumatic brain injury” (Board of Regents, the University of Texas System, priority 2020, dated 2024)
# What was measured:
# [1] = test system: DGGCs; assay: Ca2+ imaging with calcium green-1 in DGGCs of hippocampal slices, whole-cell mode; format: cell-based, mice; conditions: M084 and ML204 together, 10 μm
# Experimental: Hippocampal Slice Preparation. […] Hippocampal slices were maintained in oxygenated ACSF at 30° C. for 60 min and experiments were performed at 25° C.
# Ca2^+ Imaging. Concurrent with patch-clamp electrophysiology, neurons in slices were also imaged (Nikon FN-1, 40× water-immersion objective) via the fluorescent Ca^2+-reporter dye calcium green-1. As a hexapotassium salt, the dye (10 μm) was added to the intracellular patch pipette solution and neurons were patched under whole-cell clamp, as described above. Cells were loaded for 10 min before image acquisition. Fluorescence intensity was obtained using a SOLA Light Engine illumination source (Lumencor) with an output of 3.5 W through a 3-mm-diameter liquid light guide through a Nikon ET-GFP filter. Nikon Elements software was used for image acquisition through a QIClick CCD camera (QImaging). Images were acquired with an exposure time of 200 ms every 2 min using a single-channel, 12-bit rate and no binning. The shutter was closed between each acquisition. For each cell, the corrected total cell fluorescence was measured as the integrated density intensity—(cell area*mean background emission). Ca^2+ signals were measured as the change in fluorescence relative to the baseline fluorescence (ΔF/F0). Averages of four images were thresholded at 10%, masked using a highly averaged image of the cell, and encoded with a pseudocolor look-up table. Group cell fluorescence data were averaged in comparison with normalized intensity at each time point.
# [2] = test system: pilocarpine-induced seizures; assay: Pilocarpine-induced chemoconvulsant seizure model; format: in vivo, mice; conditions: M084 10 mg/kg 30 min before pilocarpine 280 mg/kg, n=8
# Experimental: After administration of scopolamine (1 mg/kg), control mice were pretreated with saline vehicle and then were administered pilocarpine (280 mg/kg) 30 min later.
# The muscarinic agonist pilocarpine was used to induce seizures in vivo. Two-month-old mice were injected with scopolamine methylnitrate (1 mg/kg; MP Biomedicals) to block peripheral mAChRs 30 min before administration of pilocarpine hydrochloride (280 mg/kg; Sigma-Aldrich). Drugs were delivered via intraperitoneal injection in 0.9% sterile saline at a total volume equivalent to 1% of the mouse body weight. Control mice were given the same dose of scopolamine followed by vehicle saline 30 min later. […] Peak seizure activity was observed 60 min after pilocarpine delivery with occasional forelimb clonus.
# [3] = test system: seizure susceptibility; assay: PTZ kindling after sham or CCI-TBI; conditions: M084 10 mg/kg s.c. 1 hour before each PTZ 35 mg/kg, from 7 days after surgery
# Experimental: The fact that only a portion of TBI cases become susceptible to epileptic seizures is a yet unanswered phenomenon in both preclinical and clinical studies. Therefore, we investigated seizure susceptibility within the CCI-TBI model to gain a greater understanding as to the etiology of hyperexcitability spread occurring post-injury. […] In our seizure susceptibility paradigm, 1 or 7 days after experimental procedure, mice were challenged with a subconvulsant dose of PTZ (35 mg/kg s.c.) once-daily to elicit kindling epileptogenesis (FIG. 6A). The progression of motor seizure behavior was observed and timed by direct observation linked to EEG activity (FIG. 6B).
# We wished to understand if the TRPC channel upregulation after TBI could be targeted to impede epileptogenic activity. […] Seizure susceptibility was standardized according to the latency to forelimb clonus lasting greater than 5 sec.
# Controlled cortical impact traumatic brain injury. The controlled cortical impact (CCI) traumatic brain injury (TBI) model was applied, with a closed skull impact approach. The CCI model causes TBI, but the skull remains intact with minimal hematoma. This type of brain injury model most closely simulates the TBI experienced during blunt-head injuries from vehicular accidents or falls. Mice were anesthetized with isoflurane (3% induction, 1% maintenance) in 100% O2. Body temperature of 37° C. was maintained using a temperature-controlled heated surgical table. The skull was fixed with ear-bars into a stereotaxic frame. A small midline incision was made on the scalp using aseptic surgical techniques. Impact was delivered by cylindrical probe of 5 mm diameter with an Impact One neurotrauma impactor (Leica Biosystems). A calibrated impact was delivered at 4.5 m/sec to a depth of 1 mm and 0.5 sec dwell time to the right parietal cortex (−1.8 mm ML, +2.0 mm AP, −1.0 mm DV). […] The scalp was then sutured closed and mice were placed in a warming recirculation unit and monitored until fully awake and moving freely. […] For consistency, the left hemisphere of both sham and TBI mice is designated as “contralateral” brain, and the right hemisphere is referred to as “ipsilateral”, despite no impact injury occurring in sham mice.
# In vivo electroencephalograms. To determine seizure frequency and record brain susceptibility to seizures, mice were implanted with electroencephalogram (EEG) electrodes 24 hr after sham or TBI. A three-channel tethered EEG system was used. The electrode pedestal (P1 Technologies) was secured to the skull with three anchored dental screws and connected to a preamplifier with gain of 25. The three leads were inserted over the left frontal cortex, left parietal cortex, and depth electrode lead into the hippocampus. The Stellate Harmonie acquisition hardware and software were used to collect coincident video and EEG activity. EEGs were inspected for presence of epileptiform spikes and seizures.
# Seizure susceptibility assays. Pentylenetetrazol kindling model. Seizure susceptibility was tested with the GABAA receptor antagonist pentylenetetrazol (PTZ) for progression of motor seizure activity. Mice were injected with PTZ (35 mg/kg, s.c.) once per day and scored for motor behavioral seizures.
# [4] = test system: TRPC4/5 channels; conditions: description from literature; cited from earlier work
smiles,measurement,setting,value
"CCCCNc1nc2ccccc2[nH]1 [M084, N-butyl-1H-benzimidazol-2-amine]",maximum calcium-green 1 emission on muscarinic stimulation,[1],1.61±0.21 fold
same,mean maximum Racine seizure stage,[2],1.1±0.5
same,status epilepticus,[2],not observed in any animal
same,days to clonic seizures,[3],10.6 ± 0.5 days
same,days to demonstrate myoclonic jerks,[3],7.3 ± 0.6 days
same,days to tonic-clonic seizure behavior,[3],11.0 ± 0.6 days
same,effect on TRPC4/5 channels,[4],potent inhibitor or antagonist
